Laboratory results published in ChEMBL document CHEMBL1131400, “Synthesis and comparative evaluation of two antiviral agents: beta-L-Fd4C and beta-D-Fd4C” (Bioorg Med Chem Lett, 1998).

Experiments:
B16 = experiment: In vitro inhibitory activity against growth of HIV infected B16 cell line; type: functional, cell-based; settings: Mus musculus
CCRF-CEM [1] = experiment: In vitro inhibitory activity against growth of HIV infected CEM cell line; type: functional, cell-based; settings: Homo sapiens
CCRF-CEM [2] = experiment: In vitro inhibitory activity against growth of HIV infected CEM cells combined with murine CTLL-2T lymphoblast cell line; type: functional, cell-based; settings: Homo sapiens
DLD-1 = experiment: In vitro inhibitory activity against growth of HIV infected DLD-1 cell line; type: functional, cell-based; settings: Homo sapiens
Hepatitis B virus = experiment: In vitro inhibitory activity against proliferation of HBV viral cell; type: functional, organism-based
[3] = test system: Human immunodeficiency virus; experiment: In vitro inhibitory activity against proliferation of HIV viral cell; type: functional, organism-based; settings: Human immunodeficiency virus 1
HepG2 = experiment: In vitro inhibitory activity against growth of HIV infected HepG2 cell line; type: functional, cell-based; settings: Homo sapiens
MT2 = experiment: In vitro inhibitory activity against growth of HIV infected MT-2/IIIB cell line; type: functional, cell-based; settings: Homo sapiens
Rat1 = experiment: In vitro inhibitory activity against growth of HIV infected Rat-1 cell line; type: functional, cell-based

For Nc1nc(=O)n([C@H]2C=C[C@@H](CO)O2)cc1F [DEXELVUCITABINE], the IC50 (B16) was over 200 µM, the IC50 (CCRF-CEM [1]) was 100 µM and the IC50 (CCRF-CEM [2]) was 127 µM. The IC50 (DLD-1) was over 200 µM, the EC50 (Hepatitis B virus) was under 300 nM and the EC50 [3] was 200 nM. The IC50 (HepG2) was over 200 µM, the IC50 (MT2) was 100 µM and the IC50 (Rat1) was over 200 µM.
Nc1nc(=O)n([C@@H]2C=C[C@H](CO)O2)cc1F [ELVUCITABINE] was tested, and the IC50 (B16) was over 200 µM, the IC50 (CCRF-CEM [1]) was 6.5 µM and the IC50 (CCRF-CEM [2]) was 24 µM. It also gave an IC50 (DLD-1) of over 200 µM, an EC50 [3] of 200 nM and an IC50 (HepG2) of over 200 µM. The IC50 (MT2) was 9 µM and the IC50 (Rat1) was over 200 µM.
